Laboratory results reported in ChEMBL document CHEMBL1201862, “PubChem BioAssay data set” (2004).
One block for each molecule: values may come before it. The source made the active and inactive calls.

Legend:
[1] = DRD fibroblast viability loss – cell-based, non-viral oncogenic, luminescence, dose response (AID 1934); format: functional; settings: Homo sapiens
[2] = target: T1, Cytochrome P450 1A2 (Homo sapiens, UniProt P05177);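 note: PubChem cytochrome P450 panel assay, CYP1A2 panel member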
T1 sequence (P05177 whole entry): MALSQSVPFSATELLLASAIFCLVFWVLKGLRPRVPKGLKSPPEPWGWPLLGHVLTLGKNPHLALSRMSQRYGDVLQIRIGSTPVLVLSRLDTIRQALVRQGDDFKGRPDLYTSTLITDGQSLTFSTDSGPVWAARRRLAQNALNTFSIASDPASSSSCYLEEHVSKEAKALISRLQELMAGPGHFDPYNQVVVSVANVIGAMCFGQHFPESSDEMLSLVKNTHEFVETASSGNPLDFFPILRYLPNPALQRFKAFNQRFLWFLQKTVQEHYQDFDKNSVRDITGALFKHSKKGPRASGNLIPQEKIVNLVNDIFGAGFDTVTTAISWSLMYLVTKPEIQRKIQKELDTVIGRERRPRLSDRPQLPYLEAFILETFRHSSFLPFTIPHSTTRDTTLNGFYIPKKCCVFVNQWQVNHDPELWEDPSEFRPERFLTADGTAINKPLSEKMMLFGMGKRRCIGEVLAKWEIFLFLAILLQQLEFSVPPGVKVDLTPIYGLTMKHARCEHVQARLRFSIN

[3] = system: BJ; assay: cells; format: functional, cell-based; settings: Homo sapiens
[4] = system: BJ; assay: BJ-TERT fibroblast viability loss – cell-based, RAS-independent, luminescence, dose response (AID 1933); format: functional; settings: Homo sapiens
[5] = target: T2, Cytochrome P450 2C9 (Homo sapiens, UniProt P11712)
T2 sequence (P11712 whole entry): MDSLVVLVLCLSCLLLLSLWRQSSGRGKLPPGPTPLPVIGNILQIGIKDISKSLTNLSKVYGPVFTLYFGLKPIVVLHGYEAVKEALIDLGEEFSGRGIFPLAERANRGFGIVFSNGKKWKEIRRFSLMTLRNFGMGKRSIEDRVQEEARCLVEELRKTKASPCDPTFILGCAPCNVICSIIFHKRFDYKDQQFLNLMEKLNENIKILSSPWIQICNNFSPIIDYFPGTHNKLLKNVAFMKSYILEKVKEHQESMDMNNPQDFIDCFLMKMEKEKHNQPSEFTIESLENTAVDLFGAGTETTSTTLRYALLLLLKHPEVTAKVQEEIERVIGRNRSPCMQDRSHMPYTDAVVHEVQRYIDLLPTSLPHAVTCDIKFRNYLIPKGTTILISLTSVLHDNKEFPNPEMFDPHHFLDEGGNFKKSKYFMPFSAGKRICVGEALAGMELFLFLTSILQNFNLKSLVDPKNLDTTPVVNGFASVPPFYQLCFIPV

[6] = system: BJ; assay: BJ-TERT-LT-ST fibroblast viability loss – cell-based, RAS-independent, luminescence, dose response (AID 1935); format: functional; settings: Homo sapiens;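 note: BJ fibroblasts immortalized with TERT plus LT and ST oncogenes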
[7] = target: Cytochrome P450 3A4 (Homo sapiens, UniProt P08684);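 note: CYP3A4 tested as one member of a cytochrome P450 panel screen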
Cytochrome P450 3A4, sequence (P08684 whole entry): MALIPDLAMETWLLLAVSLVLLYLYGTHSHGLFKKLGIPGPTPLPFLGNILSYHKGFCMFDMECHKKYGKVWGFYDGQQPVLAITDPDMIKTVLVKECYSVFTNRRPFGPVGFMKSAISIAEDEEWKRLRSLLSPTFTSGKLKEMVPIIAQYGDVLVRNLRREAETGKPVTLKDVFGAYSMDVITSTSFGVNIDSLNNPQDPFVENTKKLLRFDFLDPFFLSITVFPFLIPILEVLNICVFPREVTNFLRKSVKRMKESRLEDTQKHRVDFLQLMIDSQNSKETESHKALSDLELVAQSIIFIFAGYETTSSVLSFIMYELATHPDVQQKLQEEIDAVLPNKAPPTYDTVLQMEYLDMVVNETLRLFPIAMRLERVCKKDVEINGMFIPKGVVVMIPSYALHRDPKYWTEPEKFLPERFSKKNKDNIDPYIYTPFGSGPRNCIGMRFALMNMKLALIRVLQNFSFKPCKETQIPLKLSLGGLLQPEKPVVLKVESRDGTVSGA

[8] = target: T3, Mannose-6-phosphate isomerase (Homo sapiens, UniProt P34949); assay: MPI inhibition at elevated mannose 6-phosphate – biochemical, fluorescence intensity, high mannose 6-phosphate, primary screen (AID 1220)
T3 sequence (P34949 whole entry): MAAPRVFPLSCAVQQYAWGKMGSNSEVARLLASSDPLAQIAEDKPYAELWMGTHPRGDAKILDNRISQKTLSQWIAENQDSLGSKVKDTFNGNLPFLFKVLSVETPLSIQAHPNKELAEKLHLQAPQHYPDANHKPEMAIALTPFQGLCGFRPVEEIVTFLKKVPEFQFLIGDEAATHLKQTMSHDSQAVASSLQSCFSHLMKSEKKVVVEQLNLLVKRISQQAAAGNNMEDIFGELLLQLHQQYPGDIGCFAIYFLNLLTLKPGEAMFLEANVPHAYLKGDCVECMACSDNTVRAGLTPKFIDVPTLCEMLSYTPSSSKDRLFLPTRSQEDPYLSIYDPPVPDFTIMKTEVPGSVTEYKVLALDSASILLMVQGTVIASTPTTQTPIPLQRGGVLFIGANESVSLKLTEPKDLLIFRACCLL

[9] = target: T2, Cytochrome P450 2C9; remark: listed apart in the source
[10] = target: Cytochrome P450 2D6 (Homo sapiens, UniProt P10635);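 note: CYP2D6 member of a cytochrome P450 panel assay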
Cytochrome P450 2D6, sequence (P10635 whole entry): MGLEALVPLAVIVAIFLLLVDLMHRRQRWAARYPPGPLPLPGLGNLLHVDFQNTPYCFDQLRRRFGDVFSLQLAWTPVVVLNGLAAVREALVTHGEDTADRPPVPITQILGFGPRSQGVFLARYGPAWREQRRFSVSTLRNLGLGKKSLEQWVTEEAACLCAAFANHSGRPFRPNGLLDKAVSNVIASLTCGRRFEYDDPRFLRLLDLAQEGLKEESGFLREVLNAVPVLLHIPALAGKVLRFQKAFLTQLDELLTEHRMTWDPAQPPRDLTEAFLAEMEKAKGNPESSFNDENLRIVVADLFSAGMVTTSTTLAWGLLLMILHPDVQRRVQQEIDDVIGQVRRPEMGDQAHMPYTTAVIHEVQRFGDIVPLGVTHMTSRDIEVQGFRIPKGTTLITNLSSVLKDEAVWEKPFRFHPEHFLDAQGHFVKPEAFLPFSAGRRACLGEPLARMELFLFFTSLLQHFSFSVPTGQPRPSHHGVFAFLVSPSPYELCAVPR

[11] = NIH3T3 cell viability loss – ATP luminescence, mouse fibroblasts, counter-screen, dose response (AID 2010); format: functional, cell-based;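 note: cells exposed to compound for about 90 hours before reading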
[12] = target: T4, Microphthalmia-associated transcription factor (Homo sapiens, UniProt O75030); assay: reducers of TRPM1 reporter luminescence, concentration series – cell-based, SK-MEL-5, cherry-picked, set 3, MITF inhibitor project, dose response (AID 493073); format: functional;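 note: SK-MEL-5 melanoma cells with luciferase driven by the MITF target TRPM1 promoter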
T4 sequence (O75030 whole entry): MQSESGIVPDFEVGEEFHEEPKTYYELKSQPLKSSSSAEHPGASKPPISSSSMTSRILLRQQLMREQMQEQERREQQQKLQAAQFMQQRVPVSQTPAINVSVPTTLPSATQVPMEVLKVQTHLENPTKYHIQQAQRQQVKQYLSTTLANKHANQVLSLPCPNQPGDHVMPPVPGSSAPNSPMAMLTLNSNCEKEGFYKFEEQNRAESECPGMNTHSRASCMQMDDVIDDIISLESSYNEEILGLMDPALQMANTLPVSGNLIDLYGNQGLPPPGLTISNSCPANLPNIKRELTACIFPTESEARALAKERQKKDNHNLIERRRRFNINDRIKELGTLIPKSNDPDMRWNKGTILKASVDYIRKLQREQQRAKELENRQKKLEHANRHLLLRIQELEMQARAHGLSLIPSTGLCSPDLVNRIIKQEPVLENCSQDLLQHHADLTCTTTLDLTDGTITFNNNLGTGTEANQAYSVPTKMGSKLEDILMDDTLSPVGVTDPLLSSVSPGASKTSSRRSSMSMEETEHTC

[13] = Trypanosoma cruzi growth suppression in host cells – NIH3T3 host cells, beta-gal luminescence, confirmation (AID 2044); format: functional, cell-based;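 note: intracellular parasites grown in NIH/3T3 mouse fibroblasts as host cells; luminescent beta-galactosidase reporter signal from transgenic T. cruzi replicating inside host cells; inhibitors lower the luminescence signal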
[14] = target: DNA dC->dU-editing enzyme APOBEC-3G (Homo sapiens, UniProt Q9HC16); format: functional;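 note: Dose-response counterscreen measuring inhibition of APOBEC3G DNA deaminase activity, run while confirming APOBEC3A inhibitors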
DNA dC->dU-editing enzyme APOBEC-3G, sequence (Q9HC16 whole entry): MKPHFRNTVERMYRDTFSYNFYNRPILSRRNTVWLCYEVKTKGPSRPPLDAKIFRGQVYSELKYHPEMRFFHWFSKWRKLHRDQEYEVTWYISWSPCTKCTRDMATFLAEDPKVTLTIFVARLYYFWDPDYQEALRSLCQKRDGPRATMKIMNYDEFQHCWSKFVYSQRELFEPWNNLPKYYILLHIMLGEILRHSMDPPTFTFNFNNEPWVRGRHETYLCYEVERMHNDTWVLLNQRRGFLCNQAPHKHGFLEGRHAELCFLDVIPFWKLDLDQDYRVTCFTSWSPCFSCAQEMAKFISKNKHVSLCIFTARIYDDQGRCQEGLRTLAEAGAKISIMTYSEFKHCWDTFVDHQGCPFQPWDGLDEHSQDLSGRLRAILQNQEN

[15] = target: DNA dC->dU-editing enzyme APOBEC-3A (Homo sapiens, UniProt P31941); assay: Dose Response confirmation of small molecule APOBEC3A DNA Deaminase Inhibitors via a fluorescence-based single-stranded DNA deaminase assay. [Related pubchem assays (depositor defined):AID493011, AID493024]; format: functional
DNA dC->dU-editing enzyme APOBEC-3A, sequence (P31941 whole entry): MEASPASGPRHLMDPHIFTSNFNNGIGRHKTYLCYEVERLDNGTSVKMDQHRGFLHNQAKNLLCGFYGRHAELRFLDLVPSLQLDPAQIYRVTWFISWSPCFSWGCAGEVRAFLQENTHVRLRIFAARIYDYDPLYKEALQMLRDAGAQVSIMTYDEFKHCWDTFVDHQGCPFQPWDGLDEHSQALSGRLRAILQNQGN

[16] = target: Cytochrome P450 2C19 (Homo sapiens, UniProt P33261); assay: Cytochrome panel assay with activity outcomes. Panel member name: p450-cyp2c19 Compounds with AC50 equal or less than 10 uM are considered active; format: functional; settings: read-out: AC50
Cytochrome P450 2C19, sequence (P33261 whole entry): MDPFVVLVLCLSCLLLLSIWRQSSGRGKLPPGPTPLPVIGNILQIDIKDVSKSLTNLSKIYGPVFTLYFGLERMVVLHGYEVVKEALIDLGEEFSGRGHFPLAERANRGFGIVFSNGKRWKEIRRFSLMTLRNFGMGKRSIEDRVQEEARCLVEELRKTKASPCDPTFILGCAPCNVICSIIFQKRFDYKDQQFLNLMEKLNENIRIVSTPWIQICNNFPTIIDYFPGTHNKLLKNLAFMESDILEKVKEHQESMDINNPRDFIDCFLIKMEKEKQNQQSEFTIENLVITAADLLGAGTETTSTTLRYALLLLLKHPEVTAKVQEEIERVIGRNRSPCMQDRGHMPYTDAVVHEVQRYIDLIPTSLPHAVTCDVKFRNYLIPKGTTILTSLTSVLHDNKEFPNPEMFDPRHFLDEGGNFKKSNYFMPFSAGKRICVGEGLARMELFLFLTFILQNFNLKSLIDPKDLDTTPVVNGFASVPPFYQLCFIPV

[17] = target: FAD-linked sulfhydryl oxidase ALR (Homo sapiens, UniProt P55789); assay: ALR-catalysed DTT oxidation blockers – biochemical, H2O2 detection, luminescence, cherry-pick, dose response (AID 493248)
FAD-linked sulfhydryl oxidase ALR, sequence (P55789 whole entry): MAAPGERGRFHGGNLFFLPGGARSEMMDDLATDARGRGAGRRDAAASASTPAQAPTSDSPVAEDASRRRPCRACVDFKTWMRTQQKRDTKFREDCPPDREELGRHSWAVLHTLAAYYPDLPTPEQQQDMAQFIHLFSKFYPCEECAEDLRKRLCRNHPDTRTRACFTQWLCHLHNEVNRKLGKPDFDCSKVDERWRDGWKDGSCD

Compound: O=C(CCl)Nc1ccc(Oc2cnc3ccccc3n2)cc1
EC50 [1]: 16.9 µM (active)
AC50 [2]: 8.91 µM (inconclusive)
EC50 [3]: > 150 µM (not active)
EC50 [4]: 6.36 µM (active)
AC50 [5]: inconclusive
EC50 [6]: > 75 µM (inconclusive)

AC50 [7]: 20 µM (inconclusive)
IC50 [8]: > 50 µM (not active)
AC50 [9]: 10 µM (inconclusive)
AC50 [10]: 25.1 µM (inconclusive)
Compound: O=[N+]([O-])c1cc2c(cc1/C=N/c1ccccc1)OCO2

IC50 [8]: 13.2 µM (active)
Compound: CC1=CC(=Nc2c(C)n(C)n(-c3ccccc3)c2=O)C=C(C)C1=O

Compound: Cc1ccc2c(C(=O)CCl)c(C)[nH]c2c1
EC50 [11]: 11.3 µM (active)
AC50 [12]: 8.17 µM (active)
EC50 [13]: 3.94 µM (active)

AC50 [5]: inconclusive
AC50 [10]: 15.8 µM (inconclusive)
Compound: C=CCNc1nc(SCC=C)nc2ccsc12

Compound: CCOCc1cnc(C)nc1NCC(=O)c1c(C)[nH]c2cc(C)ccc12
IC50 [14]: 4.04 µM (active)
IC50 [15]: 4.29 µM (active)

Compound: CCCC[N+]12CCC(CC1)C(C(=O)c1cccs1)C2 (configuration not stated)
AC50 [16]: 39.8 µM (inconclusive)
IC50 [14]: 2.56 µM (active)
AC50 [9]: 10 µM (inconclusive)
IC50 [15]: 2.42 µM (active)

Compound: CC(=O)Nc1cc(-c2ccccc2)ccc1O
IC50 [14]: 16.5 µM (active)
AC50 [17]: 1.1 µM (active)
IC50 [15]: 7.17 µM (active)

Compound: CC(C)C(NC(=O)COc1ccc2ccccc2c1)C(=O)N/N=C/C=C/c1ccccc1 (configuration not stated)
IC50 [14]: 4.97 µM (active)
IC50 [15]: 3.22 µM (active)
